Among the data in PubChem BioAssay AID1963838 (Molecular Pharmacology Branch, DTP, NCI, 2024) are viability, T/C and IC50 values, retold here.

The structures appear in SMILES notation. Where “and” joins values, the source holds several entries; their conditions need not be identical. Equal values may be shown once. A value given as a limit tells only on which side of the number the result lay.

The subject of the assay is 855422-203-R-J1-PDC complex spheroid viability. The experiment in a line: Anticancer human tumor 855422-203-R-J1-PDC patient-derived bladder carcinoma cell line growth inhibition [POLQ]. The conditions noted are these: for viability, T/C: stronger effect = lower value. The method, then: Multicellular complex tumor spheroid response to Polymerase (POL) inhibitors (novobiocin, ART-558, RP6685) in combination with a variety of drugs and investigational agents in selected tumor cell lines
The POL inhibitors (novobiocin, ART-558, and RP6685) were evaluated both individually and in combination with standard of care and investigational anticancer small molecules within a complex spheroid model of solid tumors. . Complex spheroids include a stromal component modeled by human endothelial cells (HUVEC) and fibroblasts modeled by human mesenchymal stem cells (MSCs). The concentration ranges selected for each drug and investigational agent were based upon clinically achievable concentrations if the clinical Cmax of the agent was known.
Compounds. The drugs and investigational agents: novobiocin (NSC847541), ART-558 (NSC835418), RP-6685 (NSC848927), peposertib (NSC802822), ceralasertib (NSC780249), elimusertib (NSC800525), camonsertib (NSC841442), AZD-1390 (NSC803789), olaparib (NSC753686), talazoparib (NSC767125), rucaparib (NSC756644), sotorasib (NSC818433), MRTX-1133 (NSC836407), SN-38 (NSC673596), topotecan (NSC609699), epotoside (NSC141540), doxorubicin (NSC123127), gemcitabine (NSC613327), 5-fluorouracil (NSC19893), paclitaxel (NSC125973), vemurafenib (NSC761431), MSA-2 (NSC828583), SN-011 (NSC837082), adavosertib (NSC754352), prexasertib (NSC758257), carboplatin (NSC241240) and oxaliplatin (NSC266046), were obtained from the National Cancer Institute (NCI) Developmental Therapeutics Program Chemical Repository (21). The FDA-approved anticancer drug set is available from the Developmental Therapeutics Program at https://dtp.cancer.gov/organization/dscb/obtaining/. […] The stock solutions were prepared in dimethyl sulfoxide (DMSO, Sigma-Aldrich, St. Louis, MO, cat. D2650), except for the platinum compounds which were prepared in saline (Quality Biological, Gaithersburg, MD, cat. 114-055-101), at 800-fold the tested concentration and stored at -70 degrees C prior to their use. All drugs and investigational agents were tested over a range starting from a high concentration at or near the clinical Cmax and decreasing in half-log increments. If the clinical Cmax for an agent had not been determined, the highest concentration tested was 10 microM, except for SN-38, which was tested at a high concentration of 1 microM.
Cell Culture. All cells were maintained in an incubator at 37 degrees C and 5% CO2 with 95% humidity. The PDC lines were cultured according to standard operating procedures established by the NCI PDMR (https://pdmr.cancer.gov). Table 3 of the manuscript, lists the cell lines along with the number of the three cell types plated to form the mct-spheroids and media for tumor cell growth. After thawing, all PDC lines, except 997537-175-T-J1-PDC and 415267-285-R-J2-PDC, were cultured in Matrigel-coated flasks prepared with a working solution of 1X Ham's F-12 nutrient mix, without supplementation (Thermo Fisher Scientific, cat. 11765054), 100 U/mL penicillin-streptomycin (Thermo Fisher Scientific, cat. 15140122), and 2.5% Matrigel (Corning Inc., Corning, NY, cat. 354248) for the first three passages. The two PDC lines 997537-175-T-J1-PDC and 415267-285-R-J2-PDC were cultured on uncoated flasks. The 857933-349-R-J2-PDC line was cultured in 6C/Colon 1B media containing advanced DMEM/F-12 (Thermo Fisher Scientific, cat. 12634028), 10 mM HEPES (Thermo Fisher Scientific, cat. 15630080), 1X GlutaMAX supplement (Thermo Fisher Scientific, cat. 35050061), 0.1 mg/mL primocin (InvivoGen, San Diego, CA, cat. ant-pm-2), 10% defined fetal bovine serum, heat inactivated (HyClone Laboratories Inc., Logan, UT, cat. SH30070.03HI), 50% L-WRN conditioned media (ATCC, cat. CRL-3276), 1.25 mM N-Acetyl-L-cysteine (Sigma-Aldrich, cat. A9165), 10 mM nicotinamide (Sigma-Aldrich, cat. N0636), 1X B-27 supplement (Thermo Fisher Scientific, cat. 17504044), 1X N-2 supplement (Thermo Fisher Scientific, cat. […]
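Also: spheroids exposed to compounds for seven days before readout.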

`C=CCn1c(=O)c2cnc(Nc3ccc(N4CCN(C)CC4)cc3)nc2n1-c1cccc(C(C)(C)O)n1`: the viability, T/C is, setting by setting: (compound 0.00316 µM) 100% and 104% and 107%; (compound 0.01 µM) 100% and 120% and 111%; (compound 0.0316 µM) 106% and 108% and 122%; (compound 0.1 µM) 90.9% and 98.5% and 98%; (compound 0.316 µM) 118% and 116% and 99.9%; (compound 1 µM) 94.8% and 187% and 136%. Also, the half-maximal inhibitory concentration (IC50) (curve of compound) is > 1000 nM.
For the compound `CC(=O)O[C@H]1C(=O)[C@@]2(C)[C@H]([C@H](OC(=O)c3ccccc3)[C@]3(O)C[C@H](OC(=O)[C@H](O)[C@@H](NC(=O)c4ccccc4)c4ccccc4)C(C)=C1C3(C)C)[C@]1(OC(C)=O)CO[C@@H]1C[C@@H]2O`, the viability, T/C was 13.3% and 11.4% and 6.22% (compound 0.00949 µM); 9.21% and 8.32% and 5.81% (compound 0.03 µM); 10.3% and 7.91% and 5.5% (compound 0.0949 µM); 7.66% and 7.33% and 5.13% (compound 0.3 µM); 6.14% and 7.78% and 6.34% (compound 0.949 µM); 7.69% and 7.6% and 7.01% (compound 3 µM). Also, the IC50 (curve of compound) is < 9.49 nM.
Consider `CC(C)n1c(=O)n(C)c2cnc3cc(F)c(-c4ccc(OCCCN5CCCCC5)nc4)cc3c21`, for which the viability, T/C by setting is: (compound 0.0316 µM) 100% and 106% and 98.1%; (compound 0.1 µM) 96.9% and 119% and 91.5%; (compound 0.316 µM) 103% and 111% and 98.1%; (compound 1 µM) 97.5% and 101% and 93%; (compound 3.16 µM) 83.8% and 95.1% and 86.4%; (compound 10 µM) 56.6% and 97.9% and 74.8%. In addition, the concentration for half-maximal inhibition (IC50) (curve of compound) is > 10000 nM.
`CC1COCCN1c1cc(-c2ccnn2C)c2ccnc(-c3ccn[nH]3)c2n1` (centres undefined): the viability, T/C (compound 0.0316 µM) was 99.3% and 108% and 116%; the viability, T/C (compound 0.1 µM) was 70.3% and 81.8% and 110%; the viability, T/C (compound 0.316 µM) was 23.4% and 22.9% and 30.8%; the viability, T/C (compound 1 µM) was 11.2% and 11% and 16.2%; the viability, T/C (compound 3.16 µM) was 8.42% and 8.52% and 10.7%; the viability, T/C (compound 10 µM) was 6.55% and 7.74% and 10.3%. Also, the half-maximal inhibitory concentration (IC50) (curve of compound) was 165 nM and 186 nM and 239 nM.
Consider `CC1COCCN1c1cc(C2(S(C)(=N)=O)CC2)nc(-c2ccnc3[nH]ccc23)n1` (centres undefined), for which the viability, T/C (compound 0.0316 µM) is 97.2% and 103% and 97.7%; the viability, T/C (compound 0.1 µM) was 101% (2×) and 94.1%; the viability, T/C (compound 0.316 µM) is 109% and 115% and 116%; the viability, T/C (compound 1 µM) is 97.7% and 154% and 117%; the viability, T/C (compound 3.16 µM) was 37.8% and 46% and 35.8%; the viability, T/C (compound 10 µM) is 9.87% and 13% and 14.6%. Further, for the setting “curve of compound”, the IC50 is 2500 nM and 2960 nM and 2520 nM.
Regarding `CCCS(=O)(=O)Nc1ccc(F)c(C(=O)c2c[nH]c3ncc(-c4ccc(Cl)cc4)cc23)c1F`, the viability, T/C is, setting by setting: (compound 0.0316 µM) 106% and 96.3% and 94.9%; (compound 0.1 µM) 97.9% and 102% and 107%; (compound 0.316 µM) 117% and 97.8% and 105%; (compound 1 µM) 96.7% and 100% and 109%; (compound 3.16 µM) 113% (2×) and 108%; (compound 10 µM) 7.16% and 6.83% and 1.07%. Further, for the setting “curve of compound”, the 50% inhibitory concentration (IC50) was 6080 nM and 5930 nM and 5810 nM.
In the case of `CC[C@@]1(O)C(=O)OCc2c1cc1n(c2=O)Cc2cc3c(CN(C)C)c(O)ccc3nc2-1`, the viability, T/C was 113% and 104% and 102% (compound 0.000316 µM); 102% (2×) and 109% (compound 0.001 µM); 105% and 98.4% and 122% (compound 0.00316 µM); 90.4% and 90% and 93.3% (compound 0.01 µM); 54.6% and 99.2% and 57.2% (compound 0.0316 µM); 10.1% and 17.6% and 11.1% (compound 0.1 µM). In addition, the IC50 (curve of compound) was 35.9 nM and 63.1 nM and 37.1 nM.
As to `CCc1c2c(nc3ccc(O)cc13)-c1cc3c(c(=O)n1C2)COC(=O)[C@]3(O)CC`, the viability, T/C (compound 0.00316 µM) was 51.3% and 111% and 38.4%; the viability, T/C (compound 0.01 µM) is 12.8% and 30.6% and 13.8%; the viability, T/C (compound 0.0316 µM) was 6.94% and 13.9% and 6.52%; the viability, T/C (compound 0.1 µM) is 5.24% and 8.86% and 5.52%; the viability, T/C (compound 0.316 µM) was 3.34% and 4.22% (2×); the viability, T/C (compound 1 µM) is 1.24% and 3.11% and 2.06%. For the same compound, the IC50 (curve of compound) was 3.29 nM and 7.7 nM and < 3.16 nM.
For the compound `CNCc1ccc(-c2[nH]c3cc(F)cc4c3c2CCNC4=O)cc1`, the viability, T/C is, setting by setting: (compound 0.0316 µM) 98.8% and 101% and 112%; (compound 0.1 µM) 98.1% and 100% and 101%; (compound 0.316 µM) 114% and 108% and 99.2%; (compound 1 µM) 115% and 103% and 99.8%; (compound 3.16 µM) 105% and 88.8% and 114%; (compound 10 µM) 114% and 137% and 126%. Under “curve of compound”, the half-maximal inhibitory concentration (IC50) was > 10000 nM.
`COC1C(OC(N)=O)C(O)C(Oc2ccc3c(O)c(NC(=O)c4ccc(O)c(CC=C(C)C)c4)c(=O)oc3c2C)OC1(C)C` (centres undefined): the viability, T/C was 105% [middle of 13 runs] (compound 0.0316 µM); 108% [middle of 13 runs] (compound 0.1 µM); 111% [middle of 13 runs] (compound 0.316 µM); 106% [middle of 13 runs] (compound 1 µM); 104% [middle of 13 runs] (compound 3.16 µM). Also, the IC50 (compound alone, run of 01/08/2024) was > 10000 nM.

As a reminder, the viability, T/C is the result in the treated group divided by that in the control group, in per cent. The term IC50 denotes the concentration that inhibits the measured activity by half.
